# Laboratory results: ChEMBL document CHEMBL1201862, “PubChem BioAssay data set” (2004)
#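 Protocol summary: plate cells (96-well), add compound at 5 concentrations, incubate 48 h, interpolate endpoints linearly. GI50 marks 50% less growth.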 Active and inactive are the calls of the source. Rule as the data show it: active = GI50 up to about 1.1 µM and inactive = higher.
# How the values were obtained:
# Assay in all cases: inhibition of tumour cell growth, NCI panel, 48 h
# HCT-15 = test system: HCT-15
# NCI-H522 = test system: NCI-H522
# SNB-19 = test system: SNB-19
# UO-31 = test system: UO-31
# MDA-MB-231 = test system: MDA-MB-231
# HCT-116 = test system: HCT-116
# SF-268 = test system: SF-268
# MCF7 = test system: MCF7
# IGROV-1 = test system: IGROV-1
# LOX IMVI = test system: LOX IMVI
# MOLT-4 = test system: MOLT-4
# A549 = test system: A549
# RXF 393 = test system: RXF 393
# SK-MEL-28 = test system: SK-MEL-28
# EKVX = test system: EKVX
# DU-145 = test system: DU-145
# NCI-H226 = test system: NCI-H226
# NCI-H23 = test system: NCI-H23
# OVCAR-8 = test system: OVCAR-8
# K562 = test system: K562
Structure (SMILES),GI50 (HCT-15) [µM],GI50 (NCI-H522),GI50 (SNB-19),GI50 (UO-31),GI50 (MDA-MB-231),GI50 (HCT-116),GI50 (SF-268),GI50 (MCF7),GI50 (IGROV-1),GI50 (LOX IMVI),GI50 (MOLT-4),GI50 (A549),GI50 (RXF 393),GI50 (SK-MEL-28),GI50 (EKVX),GI50 (DU-145),GI50 (NCI-H226),GI50 (NCI-H23),GI50 (OVCAR-8),GI50 (K562)
CCOC(=O)C(C(=O)OCC)C(=S)NC1OC(COC(C)=O)C(OC(C)=O)C(OC(C)=O)C1OC(C)=O (stereo unspecified),> 100,> 100 µM (inactive),> 100 µM (inactive),> 100 µM (inactive),> 100 µM (inactive),> 100 µM (inactive),> 100 µM (inactive),> 100 µM (inactive),> 100 µM (inactive),> 100 µM (inactive),> 100 µM (inactive),> 100 µM (inactive),> 100 µM (inactive),> 100 µM (inactive),> 100 µM (inactive),> 100 µM (inactive),> 100 µM (inactive),> 100 µM (inactive),> 100 µM (inactive),–
CC(C)(Br)C(=O)N1CCN(C(c2ccccc2)c2ccccc2)CC1,64.9,85.7 µM (inactive),> 100 µM (inactive),68.7 µM (inactive),> 100 µM (inactive),32.2 µM (inactive),64 µM (inactive),24.3 µM (inactive),> 100 µM (inactive),> 100 µM (inactive),30.1 µM (inactive),> 100 µM (inactive),31.3 µM (inactive),> 100 µM (inactive),40.6 µM (inactive),50.6 µM (inactive),95.1 µM (inactive),> 100 µM (inactive),> 100 µM (inactive),> 100 µM (inactive)
Cc1coc2c1C[C@@]1(C)[C@H](CCC[C@@H]1C)[C@H]2O,36.2,22.4 µM (inactive),> 100 µM (inactive),–,20.7 µM (inactive),29.6 µM (inactive),16.9 µM (inactive),52.7 µM (inactive),19.8 µM (inactive),56.4 µM (inactive),18 µM (inactive),–,20.8 µM (inactive),29.5 µM (inactive),58.7 µM (inactive),11.9 µM (inactive),15.5 µM (inactive),36.8 µM (inactive),35.4 µM (inactive),28.4 µM (inactive)
NCC[Se][Se]CCN,6.24,10.4 µM (inactive),8.47 µM (inactive),4.42 µM (inactive),12.8 µM (inactive),4.28 µM (inactive),16 µM (inactive),8.79 µM (inactive),9.23 µM (inactive),–,5.25 µM (inactive),6.03 µM (inactive),15.6 µM (inactive),13.3 µM (inactive),5.38 µM (inactive),11.6 µM (inactive),11 µM (inactive),15 µM (inactive),10.6 µM (inactive),16.6 µM (inactive)
COc1cc2c(cc1O)CCN(C)[C@H]2Cc1ccc(Oc2c(O)c(OC)cc3c2C[C@H]2c4c(c(OC)c(OC)c(OC)c4-3)CCN2C)cc1 [THALIFABERIDINE],4.43,5.55 µM (inactive),6.34 µM (inactive),4.98 µM (inactive),3.04 µM (inactive),2.99 µM (inactive),5.66 µM (inactive),5.13 µM (inactive),5.43 µM (inactive),1.72 µM (inactive),3 µM (inactive),4.94 µM (inactive),1.75 µM (inactive),6.56 µM (inactive),5.92 µM (inactive),6.34 µM (inactive),7.46 µM (inactive),6.41 µM (inactive),4.16 µM (inactive),0.966 µM (active)
